# Results reported in patent US20080226587A1, “METHODS AND COMPOSITIONS FOR IMMUNOMODULATION” (priority 2006, published 2008).
# Tested on: DDM-reactive J.RT3/CD8-2 cells
# Experiment: T cell stimulation by DDM after proteinase K or pronase treatment
# Type: cell-based
# Details: 4 hours at 40° C.
# Source text: FIG. 4B is a graph depicting the proliferative response of DDM-reactive J.RT3/CD8-2 cells stimulated in the presence of mock treated DDM, DDM treated with proteinase K, DDM treated with pronase, or no antigen.
# The Nex antigen is the second peptidic antigen shown to be presented by CD1. The other one, DDM, is presented by CD1a. Although processing of proteins for presentation on MHC Class I and Class II molecules is well characterized, little is known about processing of CD1-presented peptides. […] DDM has no such cleavage sites for proteases. To examine the protease sensitivity of Nex, Nex and DDM were treated with non-specific proteases and T cell stimulation by each antigen was examined.
# Pronase is a mixture of endopeptidases and exopeptidases (carboxypeptidases and aminopeptidases) which digests denatured and native proteins into individual amino acids. Proteinase K is an endopeptidase with a preference for cleavage between an aliphatic, aromatic, or hydrophobic and any other amino acid, however, it will digest any peptidic bond if added in excess and over long incubation periods. […]
# To test whether treated Nex mixtures were toxic to T cells, T cell stimulation was measured in the presence of a high concentration (10 μg/ml) of treated Nex and a suboptimal concentration of untreated Nex. […]
substance,measurement,value
didehydroxymycobactin [DDM],ability to stimulate T cell proliferation after protease treatment,did not diminish
